Experiment [1] has as its system HTT mRNA. The experiment is described as follows: Gene panel canonical junction qPCR assay, HTT CJ mRNA decrease. The format is cell-based, human. Particulars: Homo sapiens, decrease in CJ mRNA levels, read-out: HTT IC50. The protocol:
(§1) Compounds described herein were used to modulate RNA transcript abundance in cells. The expression of a target mRNA was measured by detecting the formation of an exon-exon junction in the canonical transcript (CJ). A compound mediated exon-inclusion event was detected by observing an increase in formation of a new junction with an alternative exon (AJ). Real-time qPCR assays were used to detect these splicing switches and interrogate the potency of various compounds towards different target genes. A high-throughput real time quantitative PCR (RT-qPCR) assay was developed to measure these two isoforms of the mRNA (CJ and AJ) for exemplary genes, such as HTT, SMN2, and MYB, together with a control housekeeping gene, GAPDH or GUSB or PPIA, used for normalization. Briefly, the A673 or K562 cell line was treated with various compounds described herein (e.g., compounds of Formula (I), (I), or (III)). After treatment, the levels of the HTT, MYB, or SMN2 mRNA targets were determined from each sample of cell lysate by cDNA synthesis followed by qPCR.
(§2) The data analysis was performed by first determining the ΔCt vs the housekeeper gene. This ΔCt was then normalized against the DMSO control (ΔΔCt) and converted to RQ (relative quantification) using the 2^(−ΔΔCt) equation. The RQ were then converted to a percentage response by arbitrarily setting an assay window of 3.5 and 4.0 ΔCt for HTT-CJ and MYB-CJ respectively and an assay window of 9 and 3 ΔCt for HTT-AJ and MYB-AJ in 96 well format (50,000 K562 cells/well and 15,000 A673 cells per well) and an assay window of 3 and 4 ΔCt for HTT-CJ and MYB-CJ respectively and an assay window of 5 and 3 ΔCt for HTT-AJ and MYB-AJ respectively in 384 well format (8,000 K562 cells/well example). […] The percentage response was then fitted to the 4 parametric logistic equation to evaluate the concentration dependence of compound treatment. The increase in AJ mRNA is reported as AC50 (compound concentration having […] in AJ increase) while the decrease in CJ mRNA levels is reported as IC50 (compound concentration having 50) response in CJ decrease).
(§3) Additional studies were carried out for a larger panel of genes using the protocol provided above. The junction between flanking upstream and downstream exons was used to design canonical junction qPCR assays. At least one of the forward primer, reverse primer or the CY5-labeled 5′ nuclease probe (with 3′ quencher such as ZEN/Iowa Black FQ) was designed to overlap with the exon junction to capture the CJ mRNA transcript. BLAST was used to confirm the specificity of the probeset and parameters such as melting temperature, GC content, amplicon size, and primer dimer formation are considered during their design. Data for the decrease in CJ mRNA levels for four exemplary genes (HTT, SMN2, MYB, and Target C) analyzed in this panel are reported as IC50 (compound concentration having […] in CJ decrease).
(§4) A summary of the results from the panel is illustrated in Tables 5A and 51B, wherein “A” represents an IC50 of less than 100 nM; “B” represents an IC50 of between 100 nM and 1 μM; and “C” represents an IC50 of between 1 μM and 10 μM; and “D” represents an IC50 of greater than 10 μM.
A general note: In qPCR the cycle at which signal appears reflects the starting amount.

Experiment [2] deals with MYB mRNA. The experiment is described as follows: Gene panel canonical junction qPCR assay, MYB CJ mRNA decrease. Type of experiment: cell-based, human. To be noted: Homo sapiens, decrease in CJ mRNA levels, read-out: MYB IC50. How it is done: as §1, §2, §3, §4
Experiment [3] has as its system SMN2 mRNA. The experiment in a line: Gene panel canonical junction qPCR assay, SMN2 CJ mRNA decrease. The format is cell-based, human. To be noted: Homo sapiens, decrease in CJ mRNA levels, read-out: SMN2 IC50. How it is done:
as §1, §2, §3, §4

Experiment [4] relates to Target C mRNA. The experiment is described as follows: Gene panel canonical junction qPCR assay, Target C CJ mRNA decrease. Type of experiment: cell-based. To be noted: Homo sapiens, decrease in CJ mRNA levels, read-out: Target C IC50. How it is done: as §1, §2, §3, §4

As to `Cc1cn2cc(NC(=O)c3sc(C4CCNCC4)cc3F)cc(Cl)c2n1` [Compound 654], the figures for the IC50 in experiment [1], in experiment [2] and in experiment [3] were 100 to 1000 nM, 1000 to 10000 nM and 1000 to 10000 nM, respectively.
`Cn1cc2ccc(NC(=O)c3sc(C4CCNCC4)cc3F)cc2n1` [Compound 655]: the IC50 (as a rule, the concentration at which inhibition is half-maximal) in experiment [1] is 100 to 1000 nM; in experiment [2] it was less than 100 nM; in experiment [3] it was 1000 to 10000 nM.
Taken in the same sequence, the figures for `Cn1cc2c(F)cc(NC(=O)c3sc(C4CCNCC4)cc3F)cc2n1` [Compound 656] were 100 to 1000 nM, less than 100 nM and 1000 to 10000 nM.
Consider `Cc1cn2cc(NC(=O)c3cc(F)c(C4CCNCC4)s3)cc(F)c2n1` [Compound 661], for which the half-maximal inhibitory concentration (IC50) is greater than 10000 nM in experiment [1], 1000 to 10000 nM in experiment [2] and greater than 10000 nM in experiment [4].
Take `Cc1cn2nc(NC(=O)c3sc(C4CCNCC4)cc3F)cc2c(C)n1` [Compound 664]: the IC50 in experiment [1], in experiment [2] and in experiment [3] was greater than 10000 nM throughout.
As to `Cc1cn2cc(NC(=O)c3cc(Cl)c(C4CCNCC4)s3)cc(F)c2n1` [Compound 666], the IC50 lay within 1000 to 10000 nM in experiment [1], 100 to 1000 nM in experiment [2] and 1000 to 10000 nM in experiment [3].
Turning to `Cc1cn2cc(NC(=O)c3sc(C4CCNCC4)cc3F)nc2c(C)n1` [Compound 667], the IC50 in experiment [1], in experiment [2] and in experiment [3] was greater than 10000 nM throughout.
For `Cc1cn2cc(NC(=O)c3sc([C@@H]4CCN[C@H](C)C4)cc3F)cc(C(F)(F)F)c2n1` [Compound 668], the IC50 in experiment [1] is greater than 10000 nM; in experiment [2] it was 1000 to 10000 nM; in experiment [3], greater than 10000 nM.
As for `Cc1cn2cc(NC(=O)c3sc([C@H]4CCN[C@H](C)C4)cc3F)cc(C(F)(F)F)c2n1` [Compound 669], the IC50 in experiment [1] was 100 to 1000 nM; in experiment [2] it was less than 100 nM; in experiment [3] it was greater than 10000 nM.
On the same counts, the results for `Cc1cn2cc(NC(=O)c3sc(C4CCNCC4)c(C#N)c3Cl)cc(F)c2n1` [Compound 670] are 1000 to 10000 nM, 100 to 1000 nM and greater than 10000 nM.
Regarding `Cc1cn2cc(-c3sc(C(=O)NC4CCNCC4)c(Cl)c3C#N)cc(F)c2n1` [Compound 671], the concentration for half-maximal inhibition (IC50) in experiment [1] was 1000 to 10000 nM; in experiment [2] it was 100 to 1000 nM; in experiment [3], greater than 10000 nM.

(Values after patent US20240409536A1, “COMPOUNDS AND METHODS FOR MODULATING SPLICING” (REMIX THERAPEUTICS INC., priority 2021, published 2024).)
